How the values were obtained:
[1] = system: human colon cancer HCT116; experiment: HCT116 colon cancer xenograft in Crl:CD1-Foxn1^nu 1 mice; type: in vivo; conditions: HCT116, Crl:CD1-Foxn1^nu 1 mice
Experimental: (§1) Antitumor activity of protein preparations was tested in a mouse model of human colon cancer HCT116, human colon cancer Colo205, human colon cancer model SW620, human liver cancer model HepG2, and human lung cancer models NCI-H460 and NCI-H460-Luc2.
(§2) The HCT116 (in mice Crl:CD1-Foxn1^nu 1), Colo205, NCI-H460, NCI-H460-Luc2 cells were maintained in RPMI 1640 medium (Hyclone, Logan, Utah, USA) mixed in the ratio of 1:1 with Opti-MEM (Invitrogen, Cat.22600-134) supplemented with 10% fetal calf serum and 2 mM glutamine. On the day of mice grafting, the cells were detached from the support by washing the cells with trypsin (Invitrogen), then the cells were centrifuged at 1300 rpm, 4° C., 8 min., suspended in HBSS buffer (Hanks medium), counted and diluted to the concentration of 25×10^6 cells/ml.
(§3) Examination of antitumor activity of proteins of the invention was conducted on 7-9 week-old CD-nude (Crl:CD1-Foxn1^nu 1) or 4-6 week-old Crl:SHO-Prkdc^scidHr^hr mice obtained from Charles River Germany. Mice were kept under specific pathogen-free conditions with free access to food and demineralised water (ad libitum). All experiments on animals were carried in accordance with the guidelines: “Interdisciplinary Principles and Guidelines for the Use of Animals in Research. […]

[2] = system: human lung cancer NCI-H460; experiment: NCI-H460 lung cancer xenograft in Crl:SHO-PrkdcscidHrhr mice; type: in vivo; conditions: 30 mg/kg i.v. six times every second day, 28th day
Experimental: as §1, §2, §3

rhTRAIL114-281: recombinant human soluble TRAIL, amino acids 114-281 of hTRAIL, used as the comparative reference
tumor growth inhibition (TGI) relative to the control ([1]; 10 mg/kg i.v. daily for ten days, 31th day): 21.8% | tumor growth inhibition (TGI) relative to the control ([1]; 10 mg/kg i.v., 10 daily applications with a two-day break after the first 5, 27th day): 44% | tumor growth inhibition (TGI) relative to the control [2]: 17.5%
